Several values for one entry are separate records, joined by “and”; a condition that tells them apart may be missing. Identical values can stand only once. Like-named read-outs stand apart in the source and are kept apart here. One block for each compound: values may come before it.
Experiments:
[1] = test system: platelet aggregation in blood; test: Platelet aggregation in blood by multiple electrode aggregometry (MEA), static, inhibitor added in vitro; assay type: cell-based, human; settings: for collagen-induced platelet aggregation / platelet aggregation stimulated by TRAP, ADP or AA: 2 μM; for collagen-induced platelet aggregation: compared with plaque-induced aggregation; for maximal suppression of plaque-induced platelet aggregation: ACP-196 at 1 μM, ONO/GS-4059 at 2 μM; for IC50: Homo sapiens, Platelet, 15 min pre-incubation, MEA
Description: The first 3 ml of blood drawn into an empty syringe were discarded. Experiments were performed between 30 min and 4 h after venipuncture. […] (Bampalis V G. et al.

[2] = test system: platelet deposition onto plaque homogenate, plaque tissue sections or collagen; test: Platelet aggregation and thrombus formation in flowing whole blood (parallel plate flow chamber), inhibitor added in vitro; assay type: cell-based, human; settings: for final platelet aggregate formation onto collagen fibers: up to 2 μM, only delayed at highest concentrations
[3] = Blood counts, liver enzymes and tolerability in two healthy volunteers after oral Imbruvica
[4] = test system: platelet deposition onto plaque homogenate or collagen; test: Ex vivo platelet thrombus formation under arterial flow in two healthy volunteers after oral Imbruvica; parameters: species or system human; settings: shear rate 600/s
Description: For experiments in flowing blood, glass cover slips (Menzel, 24×60 mm, #1.5) coated with collagen (20 μg/ml), plaque homogenates or plaque tissue sections were assembled into parallel plate flow chambers using sticky slides (0.1 Luer sticky slides, Ibidi®, Martinsried, Germany) which had been blocked before with human serum albumin (HSA; 4% in PBS).
Fluorescence microscopy (excitation: 485/25 nm, emission: 528/38 nm) was performed for real time measurement of platelet adhesion and aggregate formation using a 10× air objective (NA 0.4) and a CoolSNAP HQ2 CCD camera (Photometrics, Tucson, USA).

[5] = test system: platelet aggregation in blood; test: Ex vivo static platelet aggregation (MEA) in two healthy volunteers after oral Imbruvica
[6] = plaque 833 μg/ml, static, read-out: IC50 for inhibition of plaque-induced platelet aggregation
[7] = plaque-induced platelet aggregation, static
[8] = donor A, 1 week after low dose Imbruvica (140 mg/d)
[9] = donor A, 3 h after Imbruvica loading dose (3×140 mg)
[10] = donor B, 1 week after low dose Imbruvica (140 mg each other day)
[11] = donor B, 3 h after Imbruvica loading dose (3×140 mg)
[12] = donor B, after 1 week 140 mg each other day

IC50 [1, 6]: 1000 nM
Compound: CC#CC(=O)N1CC[C@@H](n2c(=O)n(-c3ccc(Oc4ccccc4)cc3)c3c(N)ncnc32)C1.Cl [ONO/GS-4059]
collagen-induced platelet aggregation ([1]; static): equally well inhibited | platelet aggregation stimulated by TRAP, ADP or AA ([1]; static): only marginally | maximal suppression of plaque-induced platelet aggregation ([1]; static): 82% | concentration at which maximal suppression was reached [1, 7]: 2 µM | final platelet aggregate formation onto collagen fibers ([2]; shear rate 600/s): did not compromise

IC50 [1, 6]: 400 nM
Compound: CC#CC(=O)N1CCC[C@H]1c1nc(-c2ccc(C(=O)Nc3ccccn3)cc2)c2c(N)nccn12 [acalabrutinib]
collagen-induced platelet aggregation ([1]; static): equally well inhibited | platelet aggregation stimulated by TRAP, ADP or AA ([1]; static): only marginally | maximal suppression of plaque-induced platelet aggregation ([1]; static): 80% | concentration at which maximal suppression was reached [1, 7]: 1 µM | inhibition of platelet aggregation / thrombus formation onto plaque homogenate ([2]; 2 μM, shear rate 600/s): 96% | final platelet aggregate formation onto collagen fibers ([2]; shear rate 600/s): did not compromise

IC50 ([1]; collagen, static, read-out: IC50 for inhibition of collagen-stimulated platelet aggregation): 120 ± 40 nM | IC50 [1, 6]: 180 ± 50 nM
Compound: C=CC(=O)N1CCC[C@@H](n2nc(-c3ccc(Oc4ccccc4)cc3)c3c(N)ncnc32)C1 [ibrutinib, 1-[(3R)-3-[4-Amino-3-(4-phenoxyphenyl)-1H-pyrazolo[3,4-d]pyrimidin-1-yl]piperidin-1-yl]prop-2-en-1-one]
reduction of platelet aggregation stimulated by ADP ([1]; 1 μM, ADP 5 μM, static): −13% | reduction of platelet aggregation stimulated by TRAP ([1]; 1 μM, TRAP 5 μM, static): −31% | platelet aggregation upon stimulation with collagen ([1]; 1 μM, collagen, static): almost completely inhibited | spontaneous minimal platelet aggregation in the absence of stimuli ([1]; 1 μM, no stimulus): abolished | platelet aggregation upon stimulation with plaque ([1]; 1 μM, plaque 833 μg/ml, static): almost completely inhibited | concentration at which maximal suppression was reached ([1]; plaque- and collagen-stimulated platelet aggregation, static): 0.5 µM | B-lymphocytes (measured by FACS) ([3]; both donors): rather increased then decreased | HCT [3, 8]: 36.7 | Hb [3, 8]: 13.0 g/dL | Lymphocytes [3, 8]: 2900 µL⁻¹ | Lymphocytes, % [3, 8]: 45.9% | Monocytes [3, 8]: 500 µL⁻¹ | Monocytes, % [3, 8]: 8.1% | Neutrophils [3, 8]: 2900 µL⁻¹ | Neutrophils, % [3, 8]: 46% | Platelets [3, 8]: 217000 µL⁻¹ | Red blood cells [3, 8]: 4.22e+06 µL⁻¹ | HCT [3, 9]: 36.8 | Hb [3, 9]: 12.4 g/dL | Lymphocytes [3, 9]: 2600 µL⁻¹ | Lymphocytes, % [3, 9]: 44% | Monocytes [3, 9]: 300 µL⁻¹ | Monocytes, % [3, 9]: 5.8% | Neutrophils [3, 9]: 2900 µL⁻¹ | Neutrophils, % [3, 9]: 50.2% | Platelets [3, 9]: 247000 µL⁻¹ | Red blood cells [3, 9]: 4.07e+06 µL⁻¹ | HCT [3, 10]: 44 | Hb [3, 10]: 16.1 g/dL | Lymphocytes [3, 10]: 2000 µL⁻¹ | Lymphocytes, % [3, 10]: 29.5% | Monocytes [3, 10]: 900 µL⁻¹ | Monocytes, % [3, 10]: 12.5% | Neutrophils [3, 10]: 3900 µL⁻¹ | Neutrophils, % [3, 10]: 58% | Platelets [3, 10]: 160000 µL⁻¹ | Red blood cells [3, 10]: 4.91e+06 µL⁻¹ | HCT [3, 11]: 47.8 | Hb [3, 11]: 17.2 g/dL | Lymphocytes [3, 11]: 1700 µL⁻¹ | Lymphocytes, % [3, 11]: 27.0% | Monocytes [3, 11]: 700 µL⁻¹ | Monocytes, % [3, 11]: 10.7% | Neutrophils [3, 11]: 4000 µL⁻¹ | Neutrophils, % [3, 11]: 62.3% | Platelets [3, 11]: 188000 µL⁻¹ | Red blood cells [3, 11]: 5.39e+06 µL⁻¹ | liver enzymes ([3]; loading dose or weekly low dose intake, two donors): not altered | plaque-induced thrombus formation under arterial flow ([4]; after 1 week 140 mg/d (donor A) or 140 mg each other day (donor B)): suppressed | plaque-induced thrombus formation under arterial flow ([4]; both donors, 3 h after loading dose 3×140 mg): suppressed | inhibition of plaque-induced platelet aggregation at each day tested ([5]; donor A, 140 mg/d during the week, blood taken 23 h or 3 h post dose): > 90% | inhibition of collagen-induced platelet aggregation ([5]; donor A, 3 h after loading dose 3×140 mg): 91% | inhibition of platelet aggregation induced by two plaque homogenate pools ([5]; donor A, 3 h after loading dose 3×140 mg, one value per pool, listed as Imbruvica): 94% and 93% | inhibition of platelet aggregation after collagen stimulation ([5]; donor A, after 1 week 140 mg/d): 91% | reduction of platelet aggregation stimulated by TRAP ([5]; donor A, after 1 week 140 mg/d): 70% | inhibition of platelet aggregation stimulated by two plaque homogenate pools ([5]; donor A, after 1 week 140 mg/d, one value per pool, listed as Imbruvica): 94% and 91% | reduction of platelet aggregation after collagen stimulation ([5]; donor B, 3 h after loading dose 3×140 mg): 58% | reduction of platelet aggregation after plaque stimulation (two pools) ([5]; donor B, 3 h after loading dose 3×140 mg, one value per pool, listed as Imbruvica): 68% and 77% | inhibition of platelet aggregation after collagen stimulation [5, 12]: 82% | reduction of platelet aggregation stimulated by TRAP [5, 12]: 45% | inhibition of platelet aggregation stimulated by two plaque homogenate pools ([5]; donor B, after 1 week 140 mg each other day, one value per pool, listed as Imbruvica): 93% and 91% | platelet aggregation induced by TRAP, ADP or AA ([5]; donors A and B, 3 h after loading dose 3×140 mg): barely inhibited | platelet aggregation induced by ADP or AA ([5]; donors A and B, after 1 week low dose): barely inhibited | platelet aggregation onto collagen ([2]; 0.2 μM and 0.5 μM, high shear rate 1500/s): did not reduce | change of platelet thrombus formation onto plaque homogenate ([2]; 0.2 μM, high shear rate 1500/s): −69±16% | change of collagen-induced platelet aggregation ([2]; 0.2 μM, shear rate 600/s): +1±6% | change of platelet aggregation onto plaque homogenate ([2]; 0.2 μM, shear rate 600/s): −43±27% | change of platelet aggregation onto plaque tissue ([2]; 0.2 μM, shear rate 600/s): −33±23% | change of platelet thrombus formation onto plaque homogenate ([2]; 0.5 μM, high shear rate 1500/s): −93±5% | change of collagen-induced platelet aggregation ([2]; 0.5 μM, shear rate 600/s): +3±9% | change of platelet aggregation onto plaque homogenate ([2]; 0.5 μM, shear rate 600/s): −84±8% | change of platelet aggregation onto plaque tissue ([2]; 0.5 μM, shear rate 600/s): −44±30% | change of final platelet aggregate formation onto collagen fibers ([2]; 1 μM, shear rate 600/s): +8±2% | change of platelet aggregation onto plaque homogenate ([2]; 1 μM, shear rate 600/s): −98±1% | change of platelet thrombus formation onto plaque tissue ([2]; 1 μM, shear rate 600/s): −76±16% | platelet adhesion onto plaque homogenate ([2]; 1 μM, shear rate 600/s): preserving platelet adhesion
